Measurements from US20230121179A1, “SKIN BARRIER FUNCTION ENHANCER” (Shiseido Company, Ltd., priority 2020, published 2023).
“And” between values parts separate entries of the source, which are not always exact repeats. Equal values may be shown once.

Legend:
[1] = system: CASP14; assay: Microarray gene expression in keratinocytes after UV irradiation through wavelength conversion substance; type: cell-based; design: key: O represents the gene whose expression is significantly changed; X represents the gene whose expression is not changed; details: Normal Human Epidermal Keratinocytes, UV 100 mJ/cm^2 through wavelength conversion substance solution, no direct contact, 24 h incubation
Text: (§1) Lumate G is a zinc oxide phosphor obtained by doping ZnO with a sulfur-containing compound and then firing as described in International Patent Publication No. 2018/004006, the absorption spectrum having a peak wavelength at 365 nm and the emission spectrum having a peak wavelength at 510 nm. • (4) Magnesium titanate phosphor Lumate R by Sakai Chemical Industry Co., Ltd. was used. Lumate R is a magnesium titanate phosphor obtained by doping MgTiO3 with manganese, the absorption spectrum having a peak wavelength at 365 nm and the emission spectrum having peak wavelengths in the range of 660 to 680 nm. • The wavelength conversion substances of (1) and (2) were dissolved in water to prepare solutions at concentrations of 1% and 5%. • The wavelength conversion substances of (3) and (4) were dispersed in alcohol to prepare 5% and 10% dispersions.
(§2) Cell samples were prepared in the following manner. • 1. Human human skin keratinocytes (Normal Human Epidermal Keratinocytes, PromoCell) were used. A cell suspension (1 mL) stored with liquid nitrogen was placed in a hot water bath (37° C.) and thawed until small ice pellets remained, and then diluted with 9 mL of warm KGM medium. • 2. The diluted suspension was gently mixed and transferred to a T75 flask, and incubated overnight at 37° C. • 3. On the following day, the medium was exchanged with 10 mL of fresh medium. • 4. The medium was periodically exchanged (once every 2 - 3 days), while continuing growth of the cells. During this time, a microscope was used to observe the cells and to confirm that the cells had proliferated with the proper form. • 5. Once the cells reached approximately 80% confluence, they were subcultured. • 6. Subculturing of the cells was carried out by rinsing and aspirating once in 10 mL of warm PBS. • 7. 5 mL of warm trypsin was added to the T75 flask to cover the bottom of the flask with the trypsin solution, and the mixture was aspirated after standing for 1 minute at room temperature. • 8. The flask was set in an oven at 37° C. for 5 minutes (maximum) for keratinocytes. A microscope was used to observe the cells, confirming that they were small and elliptical. • 9. The sides of the T75 flask were then lightly tapped to free the cells. A microscope was used to observe the cells and confirm that they were freely moving. • 10. The keratinocytes were resuspended in 5 mL of warm trypsin neutralizing solution, transferred to a sterilized 50 mL Falcon tube. The flask was further rinsed with 5 mL of warm FGM and added to the Falcon tube, to ensure transfer of all of the cells. • 11.. The cells were centrifuged at […] for 5 minutes (4° C.), and the supernatant was carefully removed while avoiding disturbing the cell pellet. • 12. The keratinocytes were resuspended in KGM at a concentration of 2 × 10^4 cells/well (500 µL), and plated in collagen coated glass bottom 4-well chamber slide. • 13. The medium was replaced every two or three days, and cells were proliferated until they reached 60 to 70% confluence (differing for the type of experiment). • 14. At 24 hours before irradiation, the medium was changed to non-supplemented medium.
(§3) • 1. At least 30 minutes prior to irradiation, the power source of a solar simulator was activated to warm up the lamp. The solar simulator used was a UG11 filter. A UG11 filter is a filter that allows passage of UVB alone while cutting light of other wavelengths. […] The temperature control plate was turned on and set to 33° C. • 3. The cells prepared in Experiment 1-2 were rinsed once with warm PBS. • 4. A 0.5 mL portion of warmed Martinez solution (145 mM NaCl, 5.5 mM KC1, 1.2 mM MgCl2·6H2O, 1.2 mM NaH2PO4·2H2O, 7.5 mM HEPES, 1 mM CaCl2 and 10 mM D-glucose) was added to each well. • 5. […] The irradiation was carried out to a total radiation dose of 100 mJ/cm^2. […]

[2] = system: CDSN; assay: as above; type: cell-based; design: key: O represents the gene whose expression is significantly changed; X represents the gene whose expression is not changed; details: Normal Human Epidermal Keratinocytes, UV 100 mJ/cm^2 through wavelength conversion substance solution, no direct contact, 24 h incubation
Text: as §1, §2, §3

[3] = system: FLG; assay: as above; type: cell-based; design: key: O represents the gene whose expression is significantly changed; X represents the gene whose expression is not changed; details: Normal Human Epidermal Keratinocytes, UV 100 mJ/cm^2 through wavelength conversion substance solution, no direct contact, 24 h incubation
Text: as §1, §2, §3

[4] = system: INV; assay: as above; type: cell-based; design: key: O represents the gene whose expression is significantly changed; X represents the gene whose expression is not changed; details: Normal Human Epidermal Keratinocytes, UV 100 mJ/cm^2 through wavelength conversion substance solution, no direct contact, 24 h incubation
Text: as §1, §2, §3

[5] = system: LOR; assay: as above; type: cell-based; design: key: O represents the gene whose expression is significantly changed; X represents the gene whose expression is not changed; details: Normal Human Epidermal Keratinocytes, UV 100 mJ/cm^2 through wavelength conversion substance solution, no direct contact, 24 h incubation
Text: as §1, §2, §3

[6] = system: SMPD1; assay: as above; type: cell-based; design: key: O represents the gene whose expression is significantly changed; X represents the gene whose expression is not changed; details: Normal Human Epidermal Keratinocytes, UV 100 mJ/cm^2 through wavelength conversion substance solution, no direct contact, 24 h incubation
Text: as §1, §2, §3

[7] = system: TGase1; assay: as above; type: cell-based; design: key: O represents the gene whose expression is significantly changed; X represents the gene whose expression is not changed; details: Normal Human Epidermal Keratinocytes, UV 100 mJ/cm^2 through wavelength conversion substance solution, no direct contact, 24 h incubation
Text: as §1, §2, §3

[8] = Absorption and emission spectra of wavelength conversion substances; type: physicochemical
Text: as §1

| Compound | CASP14 gene expression change [1] | CDSN gene expression change [2] | FLG gene expression change [3] | INV gene expression change [4] | LOR gene expression change [5] | SMPD1 gene expression change [6] | TGase1 gene expression change [7] | absorption spectrum peak wavelength [8] [nm] | emission spectrum peak wavelength [8] |
| --- | --- | --- | --- | --- | --- | --- | --- | --- | --- |
| Cc1cc2nc3c(=O)[nH]c(=O)nc-3n(C[C@H](O)[C@H](O)[C@H](O)CO)c2cc1C [Vitamin B2, Riboflavin, reference compound] | O | O | O | O | X | O | O | 445 | 530 nm |
| C-phycocyanin [Lina Blue] | O | O | O | O | O | O | O | 350 | 640 nm and 700 nm |
